In patent US9951010B2, “Compounds as CRTH2 antagonist and uses thereof” (SUNSHINE LAKE PHARMA CO., LTD., priority 2014, dated 2018):

Tests used:
Detection of PK in rats = format: in vivo; details: rat, plasma
Protocol: (§1) The analysis was performed using a 4000 QTRAPP series LC/MS/MS mass spectrometer equipped with Agilent 1200 dual injection pumps, 1290 automatic sampler, column oven and ESI source, detecting by the negative ion MRM mode. Waters Xbridge C18 column was used in the analysis, and the mobile phase consisted of phase (A) (2 mM ammonium formate+0.1% aqueous ammonia solution) and phase (B) (2 mM ammonium formate+0.1% ammonia methanol solution), the flow rate was 0.4 mL/min, column temperature was 40° C., the amount of injection was 3 μL.
(§2) The male Beagle dogs or rats were administered with the compound of the invention by intravenous injection (0.4 mg/Kg) and gavage (1 mg/Kg) respectively, the blood samples were collected at the time point of 0.083, 0.25, 0.5, 1, 2, 4, 6, 8, 10, 24 and 36 h and then centrifuged to obtain plasma samples. The compound concentrations in plasma samples at various times were detected by LC/MS/MS (the method described in biologic example 3), the main pharmacokinetic parameters were calculated, and pharmacokinetic properties of the compounds of the invention in Beagle dogs or rats were evaluated.

CRTH2 receptor = molecular target: T1, CRTH2 receptor (Homo sapiens, UniProt Q9Y5Y4); experiment: FLIPR detection of inhibitory activity against CRTH2 (CHO-K1/G cells, PGD2 as agonist); format: cell-based; details: CHO-K1/G cells with stable expression of CRTH2 receptor, PGD2 at EC80, FLIPR
T1 construct: expressed in transfected cells; host or cells: CHO-K1/G cells
T1 sequence (Q9Y5Y4 1-395): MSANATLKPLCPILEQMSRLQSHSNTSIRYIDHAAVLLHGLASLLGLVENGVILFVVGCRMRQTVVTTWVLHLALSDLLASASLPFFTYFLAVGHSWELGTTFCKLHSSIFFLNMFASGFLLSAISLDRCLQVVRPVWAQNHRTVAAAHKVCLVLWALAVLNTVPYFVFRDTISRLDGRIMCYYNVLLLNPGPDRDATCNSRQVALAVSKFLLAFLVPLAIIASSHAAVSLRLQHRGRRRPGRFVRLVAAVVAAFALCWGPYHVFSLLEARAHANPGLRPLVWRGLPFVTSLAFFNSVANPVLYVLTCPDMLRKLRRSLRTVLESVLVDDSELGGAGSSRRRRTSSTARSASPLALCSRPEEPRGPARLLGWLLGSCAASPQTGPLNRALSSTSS
Protocol: The test compound was weighed accurately and then dissolved in a suitable amount of DMSO to prepare a stock solution at a concentration of 10 mM; after clear and transparent, the stock solution was subpackaged and cryostoraged at −20° C. for use. Before testing, the test compound was diluted with balanced salt solution (HBSS buffer, containing 4-(2-hydroxyethyl)piperazine-1-ethanesulfonicacid) at a concentration of 20 mM) to 5 times testing concentration.
CHO-K1/G cells with stable expression of CRTH2 receptor were prepared to 5 times testing concentration and seeded into 384-microwell plate, and incubated in an incubator at 37° C./5% CO2. After incubating for 18 hours, to the cells in 384-microwell plate was added 20 μL of dye followed by the addition of 10 μL of prepared test compound solution. And then the cell plate was incubated in the incubator at 37° C./5% CO2 for 1 hour, at last which was balanced at rt for 15 min. After adding 12.5 μL of positive agonist (PGD2) at a concentration of 5 times EC80 to each well of the cell plate, the RFU (fluorescence intensity) value of the test compound was detected.
The data were recorded from ScreenWorks (version 3.1), and collected and analyzed by using Excel and GraphPad Prism 6 software to calculate the values of IC50.

[1] = system: OVA (ovalbumin)-induced asthmatic model in rats; experiment: OVA (ovalbumin)-induced asthmatic model in rats, count of white blood cells in lung lavage; format: in vivo; details: OVA-sensitized rats, gavage once a day for three days, lung lavage solution
Protocol: The experiment purpose was to assess the drug efficacy of the test compound in OVA (ovalbumin)-induced asthmatic model in rats.
Grouping the animal randomly to control group, model group and administered group. At the first, second and third day, the control group was administered with 1 mL of PBS (phosphate buffer solution) by intraperitoneal injection, and the model group and administered group were administered with a sensitization solution (prepared by mixing 6 mL of 1% OVA in phosphate buffer solution and 54 mL of alum solution at a ratio of 1:9) by intraperitoneal injection per day (1 mL per rat).
From the nineteenth day, the administered group was administered with the test compound at a certain dose by gavage, and the control group and model group was administered with the menstruum at a corresponding dose by gavage, once a day for three days. After 1 hour of administering each day, attacking the model group and administered group with 1% OVA in phosphate buffer solution and the control group with phosphate buffer solution for 20 min.
At the twenty-third day, the animals were anesthetized with 1% pentobarbital sodium (60 mg/Kg) by intraperitoneal injection. The blood samples were collected from aorta abdominalis under pentobarbital sodium anaesthesia into EDTA-K2 tubes. After tracheal intubation was performed, the lung of the animals were lavaged with 3 mL of PBS containing 1% FBS (Fetal Bovine Serum) once, and then lavaged with 5 mL of PBS containing 1% FBS at least two times; the volume of the combined lavage solutions were adjusted to 15 mL. The total cells in the lavage solution were counted by using a hemacytometer and a Trypan blue staining method and then white blood cells in the lavage solution were counted differentially.

[2] = system: eosinophilia in airway of Wistar rats induced by DK-PGD2; experiment: Eosinophilia in airway of Wistar rats induced by DK-PGD2, cell count in BALF; format: in vivo; design: The total number of white blood cells: unit not given here; details: for inhibitory effects on the total number of white blood cells and the number of eosinophilic granulocytes: Wistar rats induced by DK-PGD2, compared with OC000459; for Eosinophilic granulocyte C (10^5/ml) / Eosinophilic granulocyte Inhibition rate / The total number of white blood cells: Wistar rats, 10 mg/Kg preventive dose 0.5 h before DK-PGD2, BALF after 24 h
Protocol: Purpose: evaluation of inhibitory effects of the compounds on the total number of white blood cells and eosinophilia in airway of Wistar rats induced by DK-PGD2.
Process: observation on the drug therapeutic effect through preventive medication. Specific operation: After 0.5 h of administering a preventive dose, the administered group and model group were induced eosinophilia with 100 μL of DK-PGD2 by spray injection through airway of rats, the blank group was spray injected with a corresponding dose of normal saline; after 24 h of molding, the rats were killed by bloodletting from aorta abdominalis, exposing the airway and the chest, performing the trachea cannula, and the bronchial pulmonary alveoli were lavaged with 8 mL of 1% BSA in PBS in twice, the bronchoalveolar lavage fluids (BALF) were collected and placed in an ice-bath; after smear, the cells were differential counted. The concentration of DK-PGD2 mother liquor was 10 mg/mL, which was diluted 5 folds to get 2 mg/mL.

[3] = Hygroscopicity test by dynamic vapor sorption; format: physicochemical; details: DVS, 25° C.
Protocol: The hygroscopicity disclosed herein is detected on a DVS INT-Std dynamic vapor and gas absorption analyzer (England Surface Measurement Systems Company) under the humidity ranged from 0% to 95%, the airflow rate is 200 mL/min, the temperature is 25° C., and one test point is provided per rising 5% humidity.
An appropriate amount of test sample was sampled, and the hygroscopicity of the test sample was detected on a dynamic vapor sorption instrument. The experiment results are as shown in table 7; the dynamic vapor sorption profiles of the crystalline form I of the compound represented by Formula (VI) is substantial the same as shown in FIG. 19.
The hygroscopic features and definition of hygroscopic weight gain are summarized in table 8 (deriving from Chinese Pharmacopoeia 2010, appendix XIX J: Guideline on pharmaceutical hygroscopicity test, test conditions: 25° C.±1° C., Relative Humidity 80%).

[4] = Detection of PK in Beagle dogs; format: in vivo; details: male, dog, plasma
Protocol: as §1, §2

[5] = Metabolic stability in rat liver microsomal; format: in vitro ADME; details: liver microsomes, pH 7.4, 37° C.
Protocol: as §1
(§3) A mixture of the compound and human liver microsomal, a mixture of the compound and dog liver microsomal, or a mixture of the compound and rat liver microsomal were separately incubated at 37° C., under a condition of pH7.4. The sample concentrations at various incubative times were detected by LC/MS/MS (the method described in biologic example 3), speed constant was obtained by plotting “Log [drug concentration]” to “incubative time” in GraphPad Prism 5.01, and the drug half-life and intrinsic clearance rate were calculated; metabolic stability of the compound in liver microsomal were evaluated based on the drug half-life and intrinsic clearance rate.

[6] = Metabolic stability in dog liver microsomal; format: in vitro ADME; details: liver microsomes, pH 7.4, 37° C.
Protocol: as §1, §3

[7] = Metabolic stability in human liver microsomal; format: in vitro ADME; details: liver microsomes, pH 7.4, 37° C.
Protocol: as §1, §3

[8] = pH7.4, intrinsic clearance, read-out: Clearance rate
[9] = pH7.4, read-out: Drug half-life

AUC(0-inf) (Detection of PK in rats; iv, 0.4 mg/Kg) [µg·h/mL]	AUC(0-t) (Detection of PK in rats; iv, 0.4 mg/Kg) [µg·h/mL]	Cmax (Detection of PK in rats; iv, 0.4 mg/Kg) [µg/mL]	half-life (Detection of PK in rats; iv, 0.4 mg/Kg) [h]	AUC(0-inf) (Detection of PK in rats; po, p.o. (gavage), 1 mg/Kg) [µg·h/mL]	AUC(0-t) (Detection of PK in rats; po, p.o. (gavage), 1 mg/Kg) [µg·h/mL]	Cmax (Detection of PK in rats; po, p.o. (gavage), 1 mg/Kg) [µg/mL]	half-life (Detection of PK in rats; po, p.o. (gavage), 1 mg/Kg) [h]	IC50 (CRTH2 receptor) [nM]	SMILES	Eosinophilic granulocyte Inhibition ratio [1] [%]	Eosinophilic granulocyte Number (×10^5/mL) [1]	Total number of white cells (×10^5/mL) [1]	inhibitory effects on the total number of white blood cells and the number of eosinophilic granulocytes [2]	Eosinophilic granulocyte C (10^5/ml) [2]	Eosinophilic granulocyte Inhibition rate [2] [%]	The total number of white blood cells [2]	also measured
0.92	0.883	0.802	1.58	1.64	1.6	0.631	1.33	57.3	Cc1c(C2CCC(NS(=O)(=O)c3ccc(F)cc3)CC2)c2cc(F)ccc2n1CC(=O)O (single isomer, unassigned) [Example 27b, 2-(5-fluoro-3-(4-(4-fluorophenylsulfonamido)cyclohexyl)-2-methyl-1H-indol-1-yl)acetic acid]	38.55	142.17 ×10^5/mL	277.800 ×10^5/mL	stronger than those of OC000459	0.09597 ± 0.04^## 10^5/ml	76.76	1.986 ± 0.28	
1.03	0.991	0.757	3.4	1.89	1.71	0.393	4.37	148	Cc1c(C2CCN(S(=O)(=O)c3ccc(F)cc3)CC2)c2cc(F)ccc2n1CC(=O)O [Example 24, 2-(5-fluoro-3-(1-((4-fluorophenyl)sulfonyl)piperidin-4-yl)-2-methyl-1H-indol-1-yl)acetic acid]	36.8	145.82 ×10^5/mL	272.775 ×10^5/mL	stronger than those of OC000459	0.0804 ± 0.02^## 10^5/ml	80.77	1.881 ± 0.26	AUC(0-inf) ([4]; iv, 0.4 mg/Kg): 5.5 µg·h/mL; AUC(0-t) ([4]; iv, 0.4 mg/Kg): 5.4 µg·h/mL; Cmax ([4]; iv, 0.4 mg/Kg): 3.21 µg/mL; half-life ([4]; iv, 0.4 mg/Kg): 4.72 h; AUC(0-inf) ([4]; po, p.o. (gavage), 1 mg/Kg): 6.92 µg·h/mL; AUC(0-t) ([4]; po, p.o. (gavage), 1 mg/Kg): 6.6 µg·h/mL; Cmax ([4]; po, p.o. (gavage), 1 mg/Kg): 1.16 µg/mL; half-life ([4]; po, p.o. (gavage), 1 mg/Kg): 10.8 h; CLint scaled [5, 8]: 0.827 L/h/kg; half-life [5, 9]: 3 h; CLint scaled [6, 8]: 0.0822 L/h/kg; half-life [6, 9]: 42.1 h; CLint scaled [7, 8]: 0.153 L/h/kg; half-life [7, 9]: 11.4 h
2.5	2.44	1.3	4.5	4.27	4.09	1.96	4.52	80.4	Cc1c(C2CCN(S(=O)(=O)c3ccc(F)cc3F)CC2)c2cc(F)ccc2n1CC(=O)O [Example 33, 2-(5-fluoro-3-(1-((2,4-difluorophenyl)sulfonyl)piperidin-4-yl)-2-methyl-1H-indol-1-yl)acetic acid]								

Continued, molecule first:

SMILES	AUC(0-inf) (Detection of PK in rats; iv, 0.4 mg/Kg) [µg·h/mL]	AUC(0-t) (Detection of PK in rats; iv, 0.4 mg/Kg) [µg·h/mL]	Cmax (Detection of PK in rats; iv, 0.4 mg/Kg) [µg/mL]	half-life (Detection of PK in rats; iv, 0.4 mg/Kg) [h]	AUC(0-inf) (Detection of PK in rats; po, p.o. (gavage), 1 mg/Kg) [µg·h/mL]	AUC(0-t) (Detection of PK in rats; po, p.o. (gavage), 1 mg/Kg) [µg·h/mL]	Cmax (Detection of PK in rats; po, p.o. (gavage), 1 mg/Kg) [µg/mL]	half-life (Detection of PK in rats; po, p.o. (gavage), 1 mg/Kg) [h]	IC50 (CRTH2 receptor) [nM]	Eosinophilic granulocyte Inhibition ratio [1] [%]	Eosinophilic granulocyte Number (×10^5/mL) [1]	Total number of white cells (×10^5/mL) [1]	inhibitory effects on the total number of white blood cells and the number of eosinophilic granulocytes [2]	Eosinophilic granulocyte C (10^5/ml) [2]	Eosinophilic granulocyte Inhibition rate [2] [%]	The total number of white blood cells [2]	also measured
Cc1c(C2CCC(NC(=O)c3ccc4ccccc4n3)CC2)c2cc(F)ccc2n1CC(=O)O.Cl (single isomer, unassigned) [Example 6a, 2-(5-fluoro-2-methyl-3-(4-(quinoline-2-carboxamido)cyclohexyl)-1H-indol-1-yl)acetic acid hydrochloride]	2.78	2.68	2.02	1.57	5.94	5.67	2.11	2.86	200	33	153.75 ×10^5/mL	247.350 ×10^5/mL	stronger than those of OC000459	0.0568 ± 0.02^## 10^5/ml	86.85	1.634 ± 0.30	
Cc1c(C2CCN(S(=O)(=O)c3ccc(F)cc3)CC2)c2cc(F)ccc2n1CC(=O)O [Crystalline form I, 2-(5-fluoro-3-(1-((4-fluorophenyl)sulfonyl)piperidin-4-yl)-2-methyl-1H-indol-1-yl)acetic acid]																	Weigh increase rate % under RH 80% ([3]; RH 80%): 0.293%; Weigh increase rate % under RH 95% ([3]; RH 95%): 0.499%
Cc1c(Cc2ccc3ccccc3n2)c2cc(F)ccc2n1CC(=O)O [OC000459, reference compound]														0.1192 ± 0.03^## 10^5/ml	70.77	2.427 ± 0.25	
